Consider one molecule from ChEMBL document CHEMBL2069226, “N-Aryl pyrrolidinonyl oxadiazoles as potent mGluR5 positive allosteric modulators” (Bioorg Med Chem Lett, 2012).

SMILES strings stand for the structures.

Series [1] can be described thus: Apparent permeability from apical to basolateral direction in MDCKI cells expressing MDR. The class given is ADME, cell-based, Canis lupus familiaris. The note with it: dog, MDCK-MDR1.
Series [2] deals with T1, Metabotropic glutamate receptor 5 (Homo sapiens, UniProt P41594). The experiment in a line: Positive allosteric modulation of human mGluR5 expressed in HEK293A cells assessed as stimulation of glutamate-induced calcium flux by FLIPR method. It is filed as functional, cell-based, HEK293-A.
Series [3] is described as follows: Drug uptake in rat brain at 10 mg/kg, ip administered as single dose after 1 hr. The note with it: read-out: Drug uptake. Set-up: dose 10 mg/kg, route intraperitoneal. The class given is ADME, organism-based.
Series [4] can be described thus: Plasma protein binding in rat plasma. It is filed as ADME, cell-free. The note with it: read-out: PPB (converted).
For series [5], the system named is Liver. The experiment in a line: Intrinsic clearance in rat liver. The class given is ADME, tissue-based.
Series [6] in a line: Plasma concentration in rat at 10 mg/kg, ip administered as single dose after 1 hr. The class given is ADME, organism-based. Set-up: dose 10 mg/kg, route intraperitoneal.
Series [7] in a line: Apparent permeability from basolateral to apical direction in MDCKI cells expressing MDR. To be noted: dog, MDCK-MDR1. The class given is ADME, cell-based, Canis lupus familiaris.
For series [8], the system named is Liver. The experiment in a line: Intrinsic clearance in human liver. It is filed as ADME, tissue-based.
A short description of series [9]: Ratio of drug uptake in brain to plasma in rat at 10 mg/kg, ip administered as single dose after 1 hr. The class given is ADME, organism-based. Set-up: dose 10 mg/kg, route intraperitoneal. To be noted: read-out: BPR.
The nature of series [10]: Plasma protein binding in human plasma. The class given is ADME, cell-free. To be noted: read-out: PPB (converted).
Series [11] addresses T1, Metabotropic glutamate receptor 5. The experiment in a line: Displacement of [3H]NAM from mGluR5. (In general: Displacement assays read how much labelled ligand stays bound in the presence of the test substance.)

T1 sequence (P41594 whole entry): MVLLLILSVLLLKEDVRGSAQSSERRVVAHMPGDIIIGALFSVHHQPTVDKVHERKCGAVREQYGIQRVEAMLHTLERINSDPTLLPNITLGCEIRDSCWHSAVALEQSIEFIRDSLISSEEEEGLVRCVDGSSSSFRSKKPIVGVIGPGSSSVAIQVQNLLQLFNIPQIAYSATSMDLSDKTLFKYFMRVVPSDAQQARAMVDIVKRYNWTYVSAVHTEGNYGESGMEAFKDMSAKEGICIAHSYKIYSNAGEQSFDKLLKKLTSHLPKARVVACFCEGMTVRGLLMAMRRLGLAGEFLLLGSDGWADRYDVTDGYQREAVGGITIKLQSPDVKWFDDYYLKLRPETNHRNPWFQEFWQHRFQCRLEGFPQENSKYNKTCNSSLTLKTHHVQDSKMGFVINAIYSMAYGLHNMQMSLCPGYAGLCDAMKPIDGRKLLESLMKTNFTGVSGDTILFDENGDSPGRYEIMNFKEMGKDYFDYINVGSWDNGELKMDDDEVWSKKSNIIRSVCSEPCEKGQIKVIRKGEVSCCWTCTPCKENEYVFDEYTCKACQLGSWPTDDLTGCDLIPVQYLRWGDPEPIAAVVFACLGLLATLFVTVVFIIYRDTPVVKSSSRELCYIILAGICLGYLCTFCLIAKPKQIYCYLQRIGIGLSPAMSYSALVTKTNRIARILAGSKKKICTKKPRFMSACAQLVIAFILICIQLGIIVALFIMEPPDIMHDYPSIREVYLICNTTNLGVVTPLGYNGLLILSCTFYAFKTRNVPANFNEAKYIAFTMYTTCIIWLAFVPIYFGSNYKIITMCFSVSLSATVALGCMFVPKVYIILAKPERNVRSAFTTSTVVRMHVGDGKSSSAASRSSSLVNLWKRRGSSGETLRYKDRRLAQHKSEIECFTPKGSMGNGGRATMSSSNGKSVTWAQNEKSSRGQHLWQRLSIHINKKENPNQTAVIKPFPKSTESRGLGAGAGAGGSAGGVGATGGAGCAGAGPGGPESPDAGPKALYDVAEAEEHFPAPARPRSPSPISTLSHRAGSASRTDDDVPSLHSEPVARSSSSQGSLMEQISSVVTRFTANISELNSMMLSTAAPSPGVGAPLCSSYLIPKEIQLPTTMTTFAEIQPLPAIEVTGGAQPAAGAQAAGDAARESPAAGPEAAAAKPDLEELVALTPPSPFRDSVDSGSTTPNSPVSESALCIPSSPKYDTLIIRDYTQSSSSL

In the case of `Cc1cccc(-c2noc(C3CC(=O)N(c4ccc(F)cc4)C3)n2)c1` (single isomer, unassigned; (-)), the Papp A→B (in general, how fast a substance crosses the layer from the apical side) in series [1] is 20 ×10⁻⁶ cm/s. In series [2], the EC50 (commonly the concentration giving half of the maximal effect) is 5.1 nM. In addition, the concentration at 1 h is 342 ng/g in series [3] and 46 ng/mL in series [6]. In addition, the fraction unbound was 0.003 in [4] and 0.007 in series [10]. Further, the figures for the CLH with Liver [5] and with Liver [8] were 20 mL/min and 1 L/min, respectively. Besides, the Papp B→A – broadly, the apparent permeability from the basolateral to the apical side of a cell layer – in series [7] turned out to be 6.4 ×10⁻⁶ cm/s. For the same molecule, the Kp at 1 h in series [9] was found to be 7.5. The Ki (commonly the dissociation constant of the complex between target and ligand, obtained from inhibition or displacement) in [11] is 230 nM.
